In patent publication US12319655B2, “RAF kinase inhibitors and methods of use thereof” (Deciphera Pharmaceuticals, LLC, priority 2021, dated 2025):
Like-named read-outs stand apart in the source and are kept apart here.

Key:
[1] = biological target: B-Raf kinase (SEQ. ID NO: 2) (Homo sapiens (Human), UniProt P15056); test: Biochemical Assay for B-Raf (1); details: Table J
In short: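 Continuous PK/LDH-coupled NADH oxidation assay, A340 read for 6 h at 30° C., with 0.13 nM B-Raf, 30.1 nM MEK substrate and 1 mM ATP in Tris pH 7.5, MgCl2, DTT, detergents, 1% DMSO. Rate taken from 4–5 h window; percent inhibition vs no-compound and known-inhibitor controls; four-parameter fit gives IC50.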

A375 cells = test: A375 Cell Proliferation Assay (1); format: cell-based; details: Homo sapiens, A-375
In short: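 Resazurin fluorescence (excitation 540 nm, emission 600 nm, after a further 5-6 h) gave IC50s from triplicate compound dilution series.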

WM3928 cells = test: WM3928 Cell Proliferation Assay (1); format: cell-based
In short: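 IC50 was derived from resazurin fluorescence (ex 540, em 600 nm) after a 6–7 h dye incubation. Before that, cells had 67–72 h of compound exposure at 37 °C, 5% CO2.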

H2405 cells = test: H2405 Cell Proliferation Assay (1); format: cell-based; details: Homo sapiens, NCI-H2405
In short: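 Viability was read by resazurin reduction (ex 540 nm, em 600 nm; 5-6 h with 40 μL of 440 μM stock) after 67-72 h compound exposure at 37 °C.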

[2] = assay version (1), read-out: BRAF (1) IC50
[3] = biochemical assay (1), read-out: BRAF (1)

Chain of B-Raf kinase (SEQ. ID NO: 2) (P15056 416-766): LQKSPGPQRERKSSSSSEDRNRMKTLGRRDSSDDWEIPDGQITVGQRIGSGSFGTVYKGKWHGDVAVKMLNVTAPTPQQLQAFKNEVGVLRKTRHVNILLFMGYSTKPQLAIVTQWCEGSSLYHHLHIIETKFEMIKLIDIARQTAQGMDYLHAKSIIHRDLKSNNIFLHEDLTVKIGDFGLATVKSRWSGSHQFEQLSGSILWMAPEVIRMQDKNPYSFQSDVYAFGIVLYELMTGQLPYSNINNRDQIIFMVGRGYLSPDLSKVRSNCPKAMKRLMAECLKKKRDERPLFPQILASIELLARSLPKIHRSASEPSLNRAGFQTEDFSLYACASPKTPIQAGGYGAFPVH

| SMILES | IC50 [1, 2] | IC50 (A375 cells) | IC50 (H2405 cells) | IC50 [1, 3] | IC50 (WM3928 cells) |
| --- | --- | --- | --- | --- | --- |
| CCOc1ncc(-c2cc(NC(=O)c3ccnc(C(F)(F)F)c3)ccc2C)cc1-c1ccnc(C(=O)NC)c1 [Example 69] | 0.1 to 0.5 µM | 0.1 to 0.5 µM | 0.1 to 0.5 µM |  | ≤ 0.1 µM |
| CNC(=O)c1cc(-c2cc(-c3cc(C(=O)Nc4ccnc(C(C)(C)C#N)c4)ccc3C)ccn2)ccn1 [Example 74] | 0.5 to 1 µM | 0.1 to 0.5 µM | 0.1 to 0.5 µM |  | 0.1 to 0.5 µM |
| Cc1ccc(NC(=O)c2ccnc(C(C)(C)C#N)c2)cc1-c1ccnc(-c2ccnc(N)c2)n1 [Example 82] | ≤ 0.1 µM | 0.5 to 1 µM | 0.5 to 1 µM |  | 1 to 10 µM |
| CNC(=O)c1cc(-c2cc(-c3cc(NC(=O)c4ccnc(C(F)(F)F)c4)ccc3C)ncn2)ccn1 [Example 85] | ≤ 0.1 µM | 1 to 10 µM | 0.1 to 0.5 µM |  | 1 to 10 µM |
| CNC(=O)c1cc(-c2cncc(-c3cc(NC(=O)c4ccnc(C(C)(C)C#N)c4)ccc3C)n2)ccn1 [Example 86] | 0.1 to 0.5 µM | ≤ 0.1 µM | ≤ 0.1 µM |  | ≤ 0.1 µM |
| CNC(=O)c1cc(-c2ccnc(-c3cc(NC(=O)c4ccnc(C(C)(C)C#N)c4)ccc3C)c2)ccn1 [Example 376] |  | ≤ 0.1 µM | 0.1 to 0.5 µM | 0.1 to 0.5 µM | 0.1 to 0.5 µM |
| Cc1ccc(NC(=O)c2cc(C3CC3)n(C)n2)cc1-c1cc(-c2ccnc(NC(=O)C3CC3)c2)cnn1 [Example 377] |  | 0.1 to 0.5 µM | 0.1 to 0.5 µM | ≤ 0.1 µM | ≤ 0.1 µM |
| Cc1ncc(NC(=O)c2ccnc(C(C)(C)C#N)c2)cc1-c1cccc(-c2ncnn3cccc23)c1 [Example 385] |  | 1 to 10 µM | 1 to 10 µM | 0.1 to 0.5 µM | 1 to 10 µM |
| COC(=O)Nc1cc(-c2cc(-c3cc(NC(=O)c4ccnc(C(C)(C)F)c4)c(F)cc3C)cc(C)n2)ccn1 [Example 386] |  | 0.1 to 0.5 µM | 0.5 to 1 µM | 0.1 to 0.5 µM | 0.1 to 0.5 µM |
| Cc1ccc(NC(=O)[C@H]2CCO[C@@H](C(C)C)C2)cc1-c1cc(-c2ccnc(NC(=O)C3CC3)c2)cnn1 [Example 388] |  | 1 to 10 µM | 1 to 10 µM | ≤ 0.1 µM | 0.5 to 1 µM |
| Cc1ccc(NC(=O)[C@H]2CCO[C@H](C(C)C)C2)cc1-c1cc(-c2ccnc(NC(=O)C3CC3)c2)cnn1 [Example 389] |  | 1 to 10 µM | 1 to 10 µM | ≤ 0.1 µM | 0.5 to 1 µM |
| COC(=O)Nc1cc(-c2nccc(-c3cc(NC(=O)c4ccnc(C(C)(C)F)c4)ccc3C)n2)ccn1 [Example 391] |  | ≤ 0.1 µM | 0.5 to 1 µM | ≤ 0.1 µM | ≤ 0.1 µM |
| CNC(=O)c1cc(-c2ccnc(-c3cc(NC(=O)CCC4(F)CC4)ccc3C)c2)ccn1 [Example 392] |  | 1 to 10 µM | 1 to 10 µM | 0.5 to 1 µM | 1 to 10 µM |
| Cc1ccc(NC(=O)c2ccnc(C(C)(C)F)c2)cc1-c1cc(-c2ccnc3[nH]ncc23)cnn1 [Example 400] |  | 1 to 10 µM | 1 to 10 µM | ≤ 0.1 µM | 1 to 10 µM |
| COC(=O)Nc1cc(-c2cc(-c3cc(NC(=O)c4ccnc(C(C)(C)F)c4)ccc3C)cc(OCCO)n2)ccn1 [Example 401] |  | ≤ 0.1 µM | 0.1 to 0.5 µM | ≤ 0.1 µM | ≤ 0.1 µM |
| COC(=O)Nc1cc(-c2cccc(-c3cc(NC(=O)c4ccnc(C(C)(C)F)c4)cnc3C)c2)ccn1 [Example 402] |  | 0.1 to 0.5 µM | 0.5 to 1 µM | ≤ 0.1 µM | 0.1 to 0.5 µM |

Now from value to compound, other results behind:

| IC50 [1, 2] | IC50 (A375 cells) | IC50 (H2405 cells) | IC50 [1, 3] | SMILES | IC50 (WM3928 cells) |
| --- | --- | --- | --- | --- | --- |
| 0.1 to 0.5 µM | 0.1 to 0.5 µM | 0.1 to 0.5 µM |  | CCOc1ncc(-c2cc(NC(=O)c3ccnc(C(F)(F)F)c3)ccc2C)cc1-c1ccnc(NC(=O)C2CC2)c1 [Example 71] | ≤ 0.1 µM |
| ≤ 0.1 µM | ≤ 0.1 µM | ≤ 0.1 µM |  | Cc1ccc(NC(=O)c2ccnc(C(C)(C)C#N)c2)cc1-c1cccc(-c2cc(NC(=O)C3CC3)ncn2)c1 [Example 77] | ≤ 0.1 µM |
| ≤ 0.1 µM | ≤ 0.1 µM | ≤ 0.1 µM |  | Cc1ccc(NC(=O)c2ccnc(C(F)(F)F)c2)cc1-c1cccc(-c2cc(NC(=O)C3CC3)ncn2)c1 [Example 80] | 0.1 to 0.5 µM |
|  | 0.1 to 0.5 µM | 0.1 to 0.5 µM | ≤ 0.1 µM | COC(=O)Nc1cc(-c2cnnc(-c3cc(NC(=O)c4ccnc(C(C)(C)F)c4)ccc3C)c2)ccn1 [Example 375] | ≤ 0.1 µM |
|  | ≤ 0.1 µM | 0.1 to 0.5 µM | 0.1 to 0.5 µM | CNC(=O)c1cc(-c2ccnc(-c3cc(NC(=O)c4ccnc(C(C)(C)F)c4)ccc3C)c2)ccn1 [Example 378] | 0.1 to 0.5 µM |
|  | ≤ 0.1 µM | 0.1 to 0.5 µM | 0.1 to 0.5 µM | CNC(=O)c1cc(-c2cncc(-c3cc(NC(=O)c4ccnc(C(C)(C)F)c4)ccc3C)c2)ncn1 [Example 379] | ≤ 0.1 µM |
|  | 0.1 to 0.5 µM | 0.1 to 0.5 µM | ≤ 0.1 µM | Cc1ccc(NC(=O)c2ccnc(C(C)(C)F)c2)cc1-c1cncc(-c2ccnc(C(N)=O)c2)c1 [Example 380] | ≤ 0.1 µM |
|  | ≤ 0.1 µM | 0.1 to 0.5 µM | ≤ 0.1 µM | COC(=O)Nc1cc(-c2cncc(-c3cc(NC(=O)c4ccnc(C(C)(C)F)c4)c(F)cc3C)c2)ccn1 [Example 384] | ≤ 0.1 µM |
|  | 0.1 to 0.5 µM | 0.1 to 0.5 µM | ≤ 0.1 µM | CNC(=O)c1cc(-c2cncc(-c3cc(NC(=O)c4ccnc(C5(C#N)CC5)c4)ccc3C)c2)ncn1 [Example 393] | ≤ 0.1 µM |
|  | ≤ 0.1 µM | ≤ 0.1 µM | ≤ 0.1 µM | Cc1ccc(NC(=O)c2ccnc(C(C)(C)F)c2)cc1-c1cncc(-c2cc(NC(=O)C3CC3)ncn2)c1 [Example 394] | ≤ 0.1 µM |
|  | ≤ 0.1 µM | ≤ 0.1 µM | ≤ 0.1 µM | Cc1ccc(NC(=O)c2ccnc(C3(C#N)CC3)c2)cc1-c1cncc(-c2cc(NC(=O)C3CC3)ncn2)c1 [Example 395] | ≤ 0.1 µM |
|  | ≤ 0.1 µM | ≤ 0.1 µM | ≤ 0.1 µM | Cc1ccc(NC(=O)c2ccnc(C3CC3)c2)cc1-c1cncc(-c2cc(NC(=O)C3CC3)ncn2)c1 [Example 396] | ≤ 0.1 µM |
|  | ≤ 0.1 µM | ≤ 0.1 µM | ≤ 0.1 µM | Cc1ccc(NC(=O)c2ccnc(C(F)(F)F)c2)cc1-c1cncc(-c2cc(NC(=O)C3CC3)ncn2)c1 [Example 397] | ≤ 0.1 µM |
|  | ≤ 0.1 µM | ≤ 0.1 µM | ≤ 0.1 µM | Cc1cc(F)c(NC(=O)c2ccnc(C3CC3)c2)cc1-c1cncc(-c2cc(NC(=O)C3CC3)ncn2)c1 [Example 398] | ≤ 0.1 µM |
|  | ≤ 0.1 µM | ≤ 0.1 µM | ≤ 0.1 µM | Cc1cc(F)c(NC(=O)c2ccnc(C(C)(C)F)c2)cc1-c1cncc(-c2ccnc(NC(=O)C3CC3)c2)c1 [Example 399] | ≤ 0.1 µM |
|  | 0.1 to 0.5 µM | 0.1 to 0.5 µM | ≤ 0.1 µM | COC(=O)Nc1cc(-c2ccnc(-c3cc(NC(=O)c4ccnc(C(C)(C)F)c4)ccc3C)n2)ccn1 [Example 403] | ≤ 0.1 µM |
